From ChEMBL document CHEMBL1201862, “PubChem BioAssay data set” (2004)
Activity calls are given as the source filed them.

Tests used:
[1] = target: T1, Apoptotic protease-activating factor 1 (Homo sapiens, UniProt O14727); assay: SAR analysis of small molecule Activators of Apaf-1 in a Fluorescent assay.; type: functional; conditions: read-out: EC50_Mean;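 also: caspase-3 cleavage of fluorogenic Rh110 DEVD substrate downstream of apoptosome activation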
T1 sequence (O14727 whole entry): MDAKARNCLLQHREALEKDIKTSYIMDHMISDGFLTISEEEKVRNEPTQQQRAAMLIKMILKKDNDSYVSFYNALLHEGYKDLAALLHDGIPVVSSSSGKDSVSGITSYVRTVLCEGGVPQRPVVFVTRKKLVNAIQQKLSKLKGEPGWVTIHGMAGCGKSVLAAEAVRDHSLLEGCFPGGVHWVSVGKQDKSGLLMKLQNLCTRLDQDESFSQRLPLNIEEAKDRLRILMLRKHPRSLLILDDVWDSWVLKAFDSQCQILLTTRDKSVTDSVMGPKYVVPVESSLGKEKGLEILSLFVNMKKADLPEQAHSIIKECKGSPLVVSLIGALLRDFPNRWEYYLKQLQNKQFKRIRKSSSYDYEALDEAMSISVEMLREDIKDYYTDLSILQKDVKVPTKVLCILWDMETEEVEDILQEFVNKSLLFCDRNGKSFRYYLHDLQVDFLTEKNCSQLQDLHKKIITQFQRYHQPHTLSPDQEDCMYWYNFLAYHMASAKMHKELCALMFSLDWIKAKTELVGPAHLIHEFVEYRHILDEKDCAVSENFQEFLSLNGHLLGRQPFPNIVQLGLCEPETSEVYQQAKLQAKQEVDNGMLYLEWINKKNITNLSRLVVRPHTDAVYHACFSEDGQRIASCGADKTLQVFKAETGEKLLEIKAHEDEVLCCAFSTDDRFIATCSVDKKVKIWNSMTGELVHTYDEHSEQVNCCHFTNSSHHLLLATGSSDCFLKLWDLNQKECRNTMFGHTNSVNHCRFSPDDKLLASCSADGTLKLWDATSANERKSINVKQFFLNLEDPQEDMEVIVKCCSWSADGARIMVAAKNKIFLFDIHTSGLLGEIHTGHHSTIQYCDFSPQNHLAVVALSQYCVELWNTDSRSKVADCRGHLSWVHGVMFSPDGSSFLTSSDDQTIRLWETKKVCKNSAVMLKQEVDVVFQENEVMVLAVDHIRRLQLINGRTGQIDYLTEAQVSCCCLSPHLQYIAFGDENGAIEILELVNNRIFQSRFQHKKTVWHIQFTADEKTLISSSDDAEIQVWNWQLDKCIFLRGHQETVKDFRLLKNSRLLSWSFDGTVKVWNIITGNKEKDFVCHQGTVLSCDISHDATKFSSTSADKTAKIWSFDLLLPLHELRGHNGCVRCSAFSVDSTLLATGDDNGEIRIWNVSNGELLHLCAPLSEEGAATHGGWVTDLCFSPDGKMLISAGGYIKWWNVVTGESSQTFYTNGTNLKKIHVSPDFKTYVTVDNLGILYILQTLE

[2] = target: Genome polyprotein (dengue virus type 2, UniProt P29990); assay: flavivirus cap methylation enzyme inhibition – biochemical, confirmation dose response, primary screen (AID 588689); type: functional
Chain of Genome polyprotein (P29990 2492-3391 limits assumed): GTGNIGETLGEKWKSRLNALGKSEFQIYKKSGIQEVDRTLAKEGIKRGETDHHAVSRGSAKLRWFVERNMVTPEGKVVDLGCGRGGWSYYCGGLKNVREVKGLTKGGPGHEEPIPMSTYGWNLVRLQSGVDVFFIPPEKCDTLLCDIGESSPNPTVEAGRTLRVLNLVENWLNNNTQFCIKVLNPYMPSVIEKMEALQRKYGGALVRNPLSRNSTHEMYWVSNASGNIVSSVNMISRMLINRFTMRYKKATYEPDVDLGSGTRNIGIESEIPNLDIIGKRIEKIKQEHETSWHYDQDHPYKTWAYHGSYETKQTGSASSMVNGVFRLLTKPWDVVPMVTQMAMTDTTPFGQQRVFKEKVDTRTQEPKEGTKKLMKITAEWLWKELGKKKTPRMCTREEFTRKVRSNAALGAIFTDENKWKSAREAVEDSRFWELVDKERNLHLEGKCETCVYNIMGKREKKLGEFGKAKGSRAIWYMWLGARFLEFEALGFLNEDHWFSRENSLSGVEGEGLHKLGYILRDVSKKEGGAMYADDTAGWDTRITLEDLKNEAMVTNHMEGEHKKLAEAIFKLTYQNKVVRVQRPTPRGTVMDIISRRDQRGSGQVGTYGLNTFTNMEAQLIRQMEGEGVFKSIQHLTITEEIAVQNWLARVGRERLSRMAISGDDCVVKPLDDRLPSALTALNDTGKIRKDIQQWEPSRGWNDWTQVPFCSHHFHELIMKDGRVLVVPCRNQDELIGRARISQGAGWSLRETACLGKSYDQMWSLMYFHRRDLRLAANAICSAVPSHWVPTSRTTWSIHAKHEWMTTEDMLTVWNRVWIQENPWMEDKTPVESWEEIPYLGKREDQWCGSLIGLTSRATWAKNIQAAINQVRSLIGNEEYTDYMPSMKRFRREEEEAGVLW

[3] = target: DNA (cytosine-5)-methyltransferase 1 (Homo sapiens, UniProt P26358); assay: inhibition of DNA methylation by DNMT1 – biochemical, fluorescent molecular beacon, confirmation (AID 602386); type: functional
Chain of DNA (cytosine-5)-methyltransferase 1 (P26358 whole entry): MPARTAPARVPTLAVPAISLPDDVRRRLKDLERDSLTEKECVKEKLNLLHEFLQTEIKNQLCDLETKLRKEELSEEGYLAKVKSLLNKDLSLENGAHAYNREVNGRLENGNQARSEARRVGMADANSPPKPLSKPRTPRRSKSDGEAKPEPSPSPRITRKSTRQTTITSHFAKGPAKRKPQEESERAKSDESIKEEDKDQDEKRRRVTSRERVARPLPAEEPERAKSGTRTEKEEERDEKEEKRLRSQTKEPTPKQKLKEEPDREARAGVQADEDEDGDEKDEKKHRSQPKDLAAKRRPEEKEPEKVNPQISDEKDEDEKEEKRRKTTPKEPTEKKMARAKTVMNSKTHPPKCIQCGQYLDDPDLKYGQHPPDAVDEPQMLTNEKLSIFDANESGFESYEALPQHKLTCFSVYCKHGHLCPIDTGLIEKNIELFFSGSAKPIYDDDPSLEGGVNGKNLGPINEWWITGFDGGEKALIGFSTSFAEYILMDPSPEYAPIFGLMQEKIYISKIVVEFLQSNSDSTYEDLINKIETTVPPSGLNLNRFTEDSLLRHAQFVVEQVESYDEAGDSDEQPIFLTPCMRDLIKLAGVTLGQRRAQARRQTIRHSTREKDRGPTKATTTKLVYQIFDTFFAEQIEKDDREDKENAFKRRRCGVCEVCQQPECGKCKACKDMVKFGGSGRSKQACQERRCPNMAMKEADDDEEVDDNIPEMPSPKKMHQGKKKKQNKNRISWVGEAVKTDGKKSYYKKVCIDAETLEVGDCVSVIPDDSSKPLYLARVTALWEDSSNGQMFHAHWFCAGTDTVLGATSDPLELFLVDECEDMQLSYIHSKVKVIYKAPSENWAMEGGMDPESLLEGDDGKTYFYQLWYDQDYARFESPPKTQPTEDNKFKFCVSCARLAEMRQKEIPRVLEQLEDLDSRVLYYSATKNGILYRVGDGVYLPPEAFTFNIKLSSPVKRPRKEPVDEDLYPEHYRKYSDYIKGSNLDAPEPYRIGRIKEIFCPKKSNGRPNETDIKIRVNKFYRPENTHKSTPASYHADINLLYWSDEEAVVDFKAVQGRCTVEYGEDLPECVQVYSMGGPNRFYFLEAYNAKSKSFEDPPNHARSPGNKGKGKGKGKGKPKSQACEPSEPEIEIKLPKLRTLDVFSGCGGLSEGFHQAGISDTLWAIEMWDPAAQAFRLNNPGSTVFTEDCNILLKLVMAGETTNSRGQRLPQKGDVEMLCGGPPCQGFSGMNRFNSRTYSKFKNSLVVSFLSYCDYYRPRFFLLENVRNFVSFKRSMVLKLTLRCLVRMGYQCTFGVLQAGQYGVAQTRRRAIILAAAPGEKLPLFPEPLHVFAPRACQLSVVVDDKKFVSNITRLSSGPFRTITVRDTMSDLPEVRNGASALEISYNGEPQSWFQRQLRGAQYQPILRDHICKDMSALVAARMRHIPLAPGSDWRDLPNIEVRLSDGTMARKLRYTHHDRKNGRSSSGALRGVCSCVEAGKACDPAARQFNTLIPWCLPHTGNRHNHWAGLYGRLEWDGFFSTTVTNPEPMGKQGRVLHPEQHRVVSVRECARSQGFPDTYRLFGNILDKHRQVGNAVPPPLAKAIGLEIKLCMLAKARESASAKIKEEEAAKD

[4] = target: T2, Streptokinase A (Streptococcus pyogenes serotype M1, UniProt P10520); assay: viability-normalized secreted streptokinase activity reduction – plasminogen activation absorbance, OD405, dose response (AID 1914); type: functional, Streptococcus pyogenes M1 GAS;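 also: secreted streptokinase activity via plasminogen activation per viability signal from cell pellet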
T2 sequence (P10520 whole entry): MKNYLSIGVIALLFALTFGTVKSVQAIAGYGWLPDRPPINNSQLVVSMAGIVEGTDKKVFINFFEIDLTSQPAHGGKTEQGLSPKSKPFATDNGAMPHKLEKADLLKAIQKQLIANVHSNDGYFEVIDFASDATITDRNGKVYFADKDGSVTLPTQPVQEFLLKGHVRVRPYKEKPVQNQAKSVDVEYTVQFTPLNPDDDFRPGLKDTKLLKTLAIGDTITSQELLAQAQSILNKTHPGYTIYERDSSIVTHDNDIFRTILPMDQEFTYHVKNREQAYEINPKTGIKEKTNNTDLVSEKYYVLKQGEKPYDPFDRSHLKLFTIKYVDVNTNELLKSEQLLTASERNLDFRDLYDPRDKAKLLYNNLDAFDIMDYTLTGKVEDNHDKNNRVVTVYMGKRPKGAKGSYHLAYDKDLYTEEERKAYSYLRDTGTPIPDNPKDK

[5] = system: Streptococcus; assay: GAS UMAA2166 growth inhibition – luminescence, BacTiterGlo, counter-screen for streptokinase expression inhibitor project, dose response (AID 1915); type: functional, organism-based;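 also: potency for reduction of bacterial viability or growth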
[6] = target: Phospholipase A2 (Homo sapiens, UniProt P04054); type: functional;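 also: confirmatory dose-response counterscreen on phospholipase A2, testing hits that came from an ultra-high-throughput screen for ATG4B inhibitors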
Chain of Phospholipase A2 (P04054 whole entry): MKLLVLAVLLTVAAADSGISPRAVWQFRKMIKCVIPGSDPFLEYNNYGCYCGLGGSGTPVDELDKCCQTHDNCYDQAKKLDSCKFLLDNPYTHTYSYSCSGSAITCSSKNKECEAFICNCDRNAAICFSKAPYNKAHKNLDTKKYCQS

[7] = target: T3, Cysteine protease ATG4B (Homo sapiens, UniProt Q9Y4P1); type: functional;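 also: Fluorescence-based dose-response confirmation assay measuring inhibition of ATG4B activity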
T3 sequence (Q9Y4P1 whole entry): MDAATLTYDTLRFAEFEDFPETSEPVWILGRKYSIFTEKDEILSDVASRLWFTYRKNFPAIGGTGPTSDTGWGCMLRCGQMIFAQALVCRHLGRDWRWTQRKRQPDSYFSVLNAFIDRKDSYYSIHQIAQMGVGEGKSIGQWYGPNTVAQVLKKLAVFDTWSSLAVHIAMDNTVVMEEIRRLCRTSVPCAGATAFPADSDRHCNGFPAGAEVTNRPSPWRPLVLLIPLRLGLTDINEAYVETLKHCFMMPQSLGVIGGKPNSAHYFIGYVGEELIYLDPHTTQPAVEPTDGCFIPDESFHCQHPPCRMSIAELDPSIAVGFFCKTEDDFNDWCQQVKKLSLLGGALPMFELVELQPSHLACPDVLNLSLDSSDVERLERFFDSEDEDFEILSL

[8] = target: FAD-linked sulfhydryl oxidase ALR (Homo sapiens, UniProt P55789); assay: ALR-catalysed DTT oxidation blockers – biochemical, H2O2 detection, luminescence, cherry-pick, dose response (AID 493248)
Chain of FAD-linked sulfhydryl oxidase ALR (P55789 whole entry): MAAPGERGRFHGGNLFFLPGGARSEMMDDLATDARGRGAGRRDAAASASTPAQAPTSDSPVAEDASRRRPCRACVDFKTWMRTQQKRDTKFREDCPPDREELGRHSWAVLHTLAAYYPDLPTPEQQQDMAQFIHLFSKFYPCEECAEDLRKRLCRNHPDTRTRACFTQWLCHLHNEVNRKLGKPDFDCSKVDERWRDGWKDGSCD

[9] = viability of uninfected HEp-2 cells – cell-based, HTS, cytotoxicity control for RSV inhibitor project, dose response (AID 2410); type: functional; conditions: human respiratory syncytial virus
[10] = system: Streptococcus sp. 'group A'; assay: Streptococcus pyogenes SK(-)GAS viability under kanamycin – luminescence, BacTiterGlo, confirmation, counter-screen for streptokinase expression inhibitor project, dose response (AID 1900); type: functional, organism-based
[11] = target: T4, Corticotropin-releasing factor receptor 2/Corticotropin-releasing factor-binding protein (Homo sapiens, UniProt P24387+Q13324); assay: Dose Response confirmation of uHTS hits for small molecule antagonists of the CRF-binding protein and CRF-R2 receptor complex.; type: functional; conditions: read-out: IC50_Mean
T4 sequence (Q13324 whole entry): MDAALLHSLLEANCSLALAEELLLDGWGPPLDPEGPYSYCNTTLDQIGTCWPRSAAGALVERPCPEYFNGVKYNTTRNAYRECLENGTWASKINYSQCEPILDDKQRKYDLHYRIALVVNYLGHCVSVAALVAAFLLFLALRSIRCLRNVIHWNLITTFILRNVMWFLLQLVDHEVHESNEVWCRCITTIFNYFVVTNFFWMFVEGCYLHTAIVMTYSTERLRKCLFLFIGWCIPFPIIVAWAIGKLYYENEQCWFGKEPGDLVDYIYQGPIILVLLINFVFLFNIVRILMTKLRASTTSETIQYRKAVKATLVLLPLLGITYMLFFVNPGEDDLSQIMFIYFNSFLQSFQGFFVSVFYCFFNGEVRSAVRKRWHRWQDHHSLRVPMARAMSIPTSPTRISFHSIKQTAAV
T4 sequence (P24387 whole entry): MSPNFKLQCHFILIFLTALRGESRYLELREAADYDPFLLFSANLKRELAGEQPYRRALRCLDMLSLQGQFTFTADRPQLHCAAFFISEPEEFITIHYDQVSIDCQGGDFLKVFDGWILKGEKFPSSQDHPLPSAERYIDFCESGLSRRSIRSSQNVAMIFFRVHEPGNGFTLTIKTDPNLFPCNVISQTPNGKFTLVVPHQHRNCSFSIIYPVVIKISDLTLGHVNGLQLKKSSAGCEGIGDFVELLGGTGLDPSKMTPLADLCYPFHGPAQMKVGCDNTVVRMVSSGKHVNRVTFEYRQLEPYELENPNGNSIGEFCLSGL

[12] = target: T4, Corticotropin-releasing factor receptor 2/Corticotropin-releasing factor-binding protein; assay: activators of CRF receptor 2 with binding protein – uHTS hits, confirmation (AID 602473); type: functional; conditions: read-out: EC50_Mean
[13] = target: T5, Orexin/Hypocretin receptor type 1 (Homo sapiens, UniProt O43613); assay: Fluorescence-based cell-based high throughput dose response assay for antagonists of the orexin 1 receptor (OX1R; HCRTR1). [Related pubchem assays (depositor defined):AID434989, AID435008, AID463079, AID485270, AID492963, AID492964, AID492965, AID493232, AID504717, AID504718]; type: functional
T5 sequence (O43613 whole entry): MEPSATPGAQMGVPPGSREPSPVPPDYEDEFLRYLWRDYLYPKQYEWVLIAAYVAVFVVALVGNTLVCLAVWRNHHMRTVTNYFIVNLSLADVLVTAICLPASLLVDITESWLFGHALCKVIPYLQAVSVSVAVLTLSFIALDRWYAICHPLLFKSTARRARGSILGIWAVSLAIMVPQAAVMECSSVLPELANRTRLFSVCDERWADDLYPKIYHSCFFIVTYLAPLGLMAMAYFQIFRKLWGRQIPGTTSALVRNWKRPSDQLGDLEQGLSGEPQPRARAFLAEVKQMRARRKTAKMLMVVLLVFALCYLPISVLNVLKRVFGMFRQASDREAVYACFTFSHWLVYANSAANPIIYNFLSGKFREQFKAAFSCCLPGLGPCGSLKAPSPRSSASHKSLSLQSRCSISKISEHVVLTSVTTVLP

[14] = target: T5, Orexin/Hypocretin receptor type 1; assay: Homogeneous Time Resolved Fluorescence (HTRF)-based cell-based high throughput dose response assay for antagonists of the orexin 1 receptor (OX1R; HCRTR1). [Related pubchem assays (depositor defined):AID434989, AID435008, AID463079, AID485270, AID492963, AID492964, AID492965, AID493232, AID504717, AID504718]; type: functional
[15] = Counterscreen for antagonists of the orexin 1 receptor (OX1R; HCRTR1): Fluorescence-based cell-based high throughput dose response assay to identify antagonists of the parental CHO cell line. [Related pubchem assays (depositor defined):AID434989, AID435008, AID463079, AID485270, AID492963, AID492964, AID492965, AID493232, AID504699, AID504701]; type: functional
[16] = target: Induced myeloid leukemia cell differentiation protein Mcl-1 (Homo sapiens, UniProt Q07820); type: functional
Chain of Induced myeloid leukemia cell differentiation protein Mcl-1 (Q07820 whole entry): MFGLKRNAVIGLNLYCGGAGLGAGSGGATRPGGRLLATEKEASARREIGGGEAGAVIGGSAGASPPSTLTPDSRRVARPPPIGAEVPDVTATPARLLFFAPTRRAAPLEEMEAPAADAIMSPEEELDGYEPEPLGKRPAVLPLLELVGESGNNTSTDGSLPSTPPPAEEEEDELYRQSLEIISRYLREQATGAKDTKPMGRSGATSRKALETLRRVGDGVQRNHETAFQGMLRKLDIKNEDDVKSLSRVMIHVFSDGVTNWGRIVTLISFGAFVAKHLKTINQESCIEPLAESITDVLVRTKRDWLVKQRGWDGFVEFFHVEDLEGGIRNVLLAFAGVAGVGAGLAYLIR

[17] = target: T6, Orexin receptor type 2 (Homo sapiens, UniProt O43614); assay: Counterscreen assay for antagonists of the orexin 1 receptor (OX1R; HCRTR1): Fluorescence-based cell-based dose response assay for antagonists of the orexin 2 receptor (OX2R; HCRTR2), run by assay provider.; type: functional
T6 sequence (O43614 whole entry): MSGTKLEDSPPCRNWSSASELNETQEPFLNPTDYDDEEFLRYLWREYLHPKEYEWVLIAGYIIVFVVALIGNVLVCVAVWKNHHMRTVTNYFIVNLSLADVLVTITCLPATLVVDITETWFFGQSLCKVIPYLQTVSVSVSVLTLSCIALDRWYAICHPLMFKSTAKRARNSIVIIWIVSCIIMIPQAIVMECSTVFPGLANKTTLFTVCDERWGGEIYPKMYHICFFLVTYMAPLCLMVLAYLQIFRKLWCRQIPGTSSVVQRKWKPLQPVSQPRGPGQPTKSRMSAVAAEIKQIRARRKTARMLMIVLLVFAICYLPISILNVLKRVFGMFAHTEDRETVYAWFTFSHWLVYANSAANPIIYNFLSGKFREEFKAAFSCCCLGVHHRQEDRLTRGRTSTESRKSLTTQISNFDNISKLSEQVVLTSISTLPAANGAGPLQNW

[18] = target: T6, Orexin receptor type 2; assay: Counterscreen assay for antagonists of the orexin 1 receptor (OX1R; HCRTR1): Homogeneous Time Resolved Fluorescence (HTRF)-based cell-based dose response assay for antagonists of the orexin 2 receptor (OX2R; HCRTR2), run by assay provider.; type: functional
[19] = system: CHO-K1; assay: Counterscreen for antagonists of the orexin 1 receptor (OX1R; HCRTR1): Homogeneous time resolved fluorescence (HTRF)-based cell-based dose response assay to identify antagonists of the parental CHO-K1 cell line. [Related pubchem assays (depositor defined):AID434989, AID435008, AID463079, AID485270, AID492963, AID492964, AID492965, AID493232, AID504699, AID504701]; type: functional; conditions: Cricetulus griseus;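 also: potency for inhibition of ATP-stimulated IP1 production as antagonists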

## O=C(C1CC(c2ccc(F)cc2)=NO1)N1CCCc2ccccc21 (configuration not stated)
[1]
  EC50: > 100 µM (inactive)

## O=C(O)CN1C(=O)/C(=C\c2cc(Br)ccc2OCc2ccc(Cl)cc2)SC1=S
[2]
  IC50: 24.8 µM (active)
[3]
  IC50: 7.36 µM (active)
[4]
  EC50: > 50 µM (not active)
[5]
  EC50: 3.08 µM (active)
[6]
  IC50: 4.68 µM (active)
[7]
  IC50: 7.13 µM (active)
[8]
  AC50: 1.58 µM (active)
[9]
  CC50: 14.9 µM (active)
[10]
  EC50: 1.58 µM (active)

## COc1ccc(/C=C2\CCc3ccccc3C2=O)c(OC)c1OC
[6]
  IC50: 31.7 µM (inactive)
[7]
  IC50: 38.6 µM (inactive)
[11]
  IC50: > 47.1 µM (inactive)
[12]
  EC50: > 53 µM (inactive)

## Sc1nnc(-c2cc(-c3ccccc3)[nH]n2)n1/N=C/c1c2ccccc2cc2ccccc12
[13]
  IC50: 23.7 µM (inactive)
[14]
  IC50: 0.585 µM (active)
[15]
  IC50: > 49.8 µM (inactive)
[16]
  IC50: 6.05 µM (not active)
[17]
  IC50: > 88.8 µM (inactive)
[18]
  IC50: > 50 µM (inactive)
[19]
  IC50: > 66.2 µM (inactive)

## COc1ccc(N2C(=O)CC3(CC(c4ccccc4F)=NO3)C2=O)cc1 (configuration not stated)
[1]
  EC50: > 100 µM (inactive)
